The text below walks through data of patent US11020399B2, “Intermediates useful in the synthesis of compounds as modulators of protein kinases” (Rhizen Pharmaceuticals SA, priority 2011, dated 2021).

SMILES strings stand for the structures. Where only a bound is given, the exact number is not on record here.

One series has as its target PI3kγ (Homo sapiens, UniProt P48736). Nature of the series: Fluorescent (HTRF) determination of PI3 kinase enzyme activity, PI3Kγ. Type of series: biochemical. The following applies: for inhibition at 0.3 µM: 300 nM (Examples 1-59). An outline of the steps:
(§1)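 Compounds tested at 1 μM on α and β isoforms and at 0.3 or 0.1 μM on γ and δ, with percent inhibition from blank and enzyme controls, plus IC50 fits. Room-temperature reaction: 10 min enzyme–compound preincubation in MgCl2/DTT buffer with 1.38 μM PIP2, then 30 min after 400 μM ATP addition; PIP3 read by HTRF (665/620 nm).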

The next series deals with PI3kδ (Homo sapiens, UniProt O00329). Nature of the series: Fluorescent (HTRF) determination of PI3 kinase enzyme activity, PI3Kδ. The following applies: for inhibition at 0.3 µM: 300 nM (Examples 1-59). Type of series: biochemical. An outline of the steps: as §1
PI3kδ, sequence (O00329 whole entry): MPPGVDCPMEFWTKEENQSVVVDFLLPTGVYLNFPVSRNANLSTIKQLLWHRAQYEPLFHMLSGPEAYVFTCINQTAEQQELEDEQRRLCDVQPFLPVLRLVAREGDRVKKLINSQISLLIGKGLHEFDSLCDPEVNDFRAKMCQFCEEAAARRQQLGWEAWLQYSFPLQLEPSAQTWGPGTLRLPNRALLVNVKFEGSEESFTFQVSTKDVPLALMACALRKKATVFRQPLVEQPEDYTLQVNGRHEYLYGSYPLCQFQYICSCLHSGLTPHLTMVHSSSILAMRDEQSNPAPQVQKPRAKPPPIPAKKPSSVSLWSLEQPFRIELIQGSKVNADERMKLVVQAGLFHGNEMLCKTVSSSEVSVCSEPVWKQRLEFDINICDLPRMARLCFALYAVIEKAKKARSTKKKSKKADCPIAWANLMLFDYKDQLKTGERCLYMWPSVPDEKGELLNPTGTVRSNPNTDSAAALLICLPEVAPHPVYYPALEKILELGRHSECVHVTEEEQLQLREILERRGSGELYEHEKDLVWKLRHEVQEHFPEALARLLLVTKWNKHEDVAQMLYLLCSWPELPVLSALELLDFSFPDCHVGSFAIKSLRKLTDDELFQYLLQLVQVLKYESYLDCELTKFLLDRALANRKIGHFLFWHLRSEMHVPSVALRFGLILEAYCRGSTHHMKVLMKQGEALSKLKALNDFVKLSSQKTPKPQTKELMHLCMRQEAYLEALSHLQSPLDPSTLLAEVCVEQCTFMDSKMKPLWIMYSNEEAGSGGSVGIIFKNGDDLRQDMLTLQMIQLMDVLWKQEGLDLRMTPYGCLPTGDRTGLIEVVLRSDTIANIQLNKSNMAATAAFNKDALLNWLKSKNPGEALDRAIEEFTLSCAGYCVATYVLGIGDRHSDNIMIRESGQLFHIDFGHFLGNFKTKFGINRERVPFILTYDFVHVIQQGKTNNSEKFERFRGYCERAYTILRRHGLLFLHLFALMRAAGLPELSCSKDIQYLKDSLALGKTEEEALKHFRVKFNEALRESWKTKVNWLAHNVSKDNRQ
PI3kδ, sequence (P27986 whole entry partner): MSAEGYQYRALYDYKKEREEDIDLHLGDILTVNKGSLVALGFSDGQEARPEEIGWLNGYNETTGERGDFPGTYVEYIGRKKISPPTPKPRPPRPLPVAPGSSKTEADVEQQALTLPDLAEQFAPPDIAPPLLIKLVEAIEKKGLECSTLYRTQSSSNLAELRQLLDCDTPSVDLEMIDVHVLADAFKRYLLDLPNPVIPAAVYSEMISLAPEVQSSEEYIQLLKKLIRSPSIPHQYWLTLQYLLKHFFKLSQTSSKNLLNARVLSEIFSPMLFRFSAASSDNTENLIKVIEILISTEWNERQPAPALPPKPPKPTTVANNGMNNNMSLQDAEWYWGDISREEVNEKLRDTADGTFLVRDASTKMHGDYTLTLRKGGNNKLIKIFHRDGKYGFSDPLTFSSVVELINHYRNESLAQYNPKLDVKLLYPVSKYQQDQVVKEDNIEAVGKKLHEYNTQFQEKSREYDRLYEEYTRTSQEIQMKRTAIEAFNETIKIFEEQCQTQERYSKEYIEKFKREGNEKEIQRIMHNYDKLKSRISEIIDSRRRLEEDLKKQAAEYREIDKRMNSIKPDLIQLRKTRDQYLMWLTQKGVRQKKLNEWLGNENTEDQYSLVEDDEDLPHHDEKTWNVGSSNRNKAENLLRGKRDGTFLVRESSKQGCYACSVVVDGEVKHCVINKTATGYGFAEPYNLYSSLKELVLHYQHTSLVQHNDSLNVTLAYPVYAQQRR

PI3kγ, sequence (P48736 whole entry, canonical isoform): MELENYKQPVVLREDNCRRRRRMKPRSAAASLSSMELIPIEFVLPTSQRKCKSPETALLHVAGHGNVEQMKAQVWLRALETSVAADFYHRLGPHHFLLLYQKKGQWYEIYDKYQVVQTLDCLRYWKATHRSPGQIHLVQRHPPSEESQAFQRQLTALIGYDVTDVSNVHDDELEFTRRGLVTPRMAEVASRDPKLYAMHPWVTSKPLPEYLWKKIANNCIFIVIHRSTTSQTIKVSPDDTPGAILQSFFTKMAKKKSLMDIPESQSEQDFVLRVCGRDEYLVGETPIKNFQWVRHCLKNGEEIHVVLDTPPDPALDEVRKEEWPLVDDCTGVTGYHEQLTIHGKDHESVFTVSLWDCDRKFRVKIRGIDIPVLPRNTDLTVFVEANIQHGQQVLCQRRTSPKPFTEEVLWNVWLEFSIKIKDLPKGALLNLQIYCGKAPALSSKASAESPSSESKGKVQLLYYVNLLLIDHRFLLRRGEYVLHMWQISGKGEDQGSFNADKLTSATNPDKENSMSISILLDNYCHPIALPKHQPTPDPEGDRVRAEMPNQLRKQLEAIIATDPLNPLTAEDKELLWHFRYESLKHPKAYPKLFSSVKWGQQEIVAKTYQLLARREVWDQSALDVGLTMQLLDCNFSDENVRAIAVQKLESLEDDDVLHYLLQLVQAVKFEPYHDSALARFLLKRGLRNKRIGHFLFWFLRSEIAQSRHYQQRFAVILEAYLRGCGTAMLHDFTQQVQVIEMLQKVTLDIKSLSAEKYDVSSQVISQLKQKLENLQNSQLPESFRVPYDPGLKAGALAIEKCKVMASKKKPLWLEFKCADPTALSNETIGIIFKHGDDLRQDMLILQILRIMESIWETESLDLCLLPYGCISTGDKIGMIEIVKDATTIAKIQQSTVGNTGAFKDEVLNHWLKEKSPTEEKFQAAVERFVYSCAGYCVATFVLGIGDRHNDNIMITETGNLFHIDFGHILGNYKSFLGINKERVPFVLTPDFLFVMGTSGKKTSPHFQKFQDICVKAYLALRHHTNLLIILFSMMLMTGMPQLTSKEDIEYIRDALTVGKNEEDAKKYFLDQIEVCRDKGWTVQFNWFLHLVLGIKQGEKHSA

For `C[C@H](Nc1nc(F)nc2[nH]cnc12)c1oc2cccc(F)c2c(=O)c1-c1cccc(F)c1` (racemic) [Example 136, (S)/(R)-5-fluoro-2-(1-(2-fluoro-9H-purin-6-ylamino)ethyl)-3-(3-fluorophenyl)-4H-chromen-4-one], the melting point lay within 183 to 186 °C. The molecule further displayed an inhibition at 0.1 µM against PI3kγ (100 nM (Examples 60-137)) of 25 to 50%. In addition, the inhibition at 0.1 µM at PI3kδ (100 nM (Examples 60-137)) was 25 to 50%.
`COc1nc(N[C@@H](C)c2oc3cccc(F)c3c(=O)c2-c2cccc(F)c2)c2nc[nH]c2n1` (single isomer, unassigned) [Example 134]: the melting point lay within 186 to 189 °C. Further, the inhibition at 0.1 µM on PI3kγ (100 nM (Examples 60-137)) lay within 0 to 25%. In addition, the inhibition at 0.1 µM on PI3kδ (100 nM (Examples 60-137)) fell in the range of 25 to 50%.
For `COc1nc(N[C@H](C)c2oc3cccc(F)c3c(=O)c2-c2cccc(F)c2)c2nc[nH]c2n1` (single isomer, unassigned) [Example 135] the same measures were 219 to 222 °C, 25 to 50% and 25 to 50%.
With `CC(c1oc2cccc(F)c2c(=O)c1-c1cccc(F)c1)n1nc(-c2ccc(OC(F)(F)F)c(F)c2)c2c(N)ncnc21` (stereo not shown) [Example 45, 2-(1-(4-amino-3-(3-fluoro-4-(trifluoromethoxy)phenyl)-1H-pyrazolo[3,4-d]pyrimidin-1-yl)ethyl)-5-fluoro-3-(3-fluorophenyl)-4H-chromen-4-one], the melting point lay in the range of 247 to 249 °C. On PI3kγ, this molecule displayed an inhibition at 0.3 µM of 25 to 50%. This molecule yielded an inhibition at 0.3 µM on PI3kδ of 50 to 75%.
For `CC(c1oc2cccc(F)c2c(=O)c1-c1cccc(F)c1)n1nc(N2CCCC2)c2c(N)ncnc21` (stereo not shown) [Example 47, 2-(1-(4-amino-3-(pyrrolidin-1-yl)-1H-pyrazolo[3,4-d]pyrimidin-1-yl)ethyl)-5-fluoro-3-(3-fluorophenyl)-4H-chromen-4-one] the same measures were 203 to 205 °C, 0 to 25% and 0 to 25%.
Take `CC(c1oc2cccc(F)c2c(=O)c1-c1cccc(F)c1)n1nc(-c2ccc(C3=NCCCO3)cc2)c2c(N)ncnc21` (stereo not shown) [Example 51, 2-(1-(4-amino-3-(4-(5,6-dihydro-4H-1,3-oxazin-2-yl)phenyl)-1H-pyrazolo[3,4-d]pyrimidin-1-yl)ethyl)-5-fluoro-3-(3-fluorophenyl)-4H-chromen-4-one]: the melting point was 228 to 230 °C. For the same molecule, the inhibition at 0.3 µM against PI3kγ was 50 to 75%. On PI3kδ, this molecule registered an inhibition at 0.3 µM of 25 to 50%.
For `CC(C)NC(=O)c1ccc(-c2nn(C(C)c3oc4cccc(F)c4c(=O)c3-c3cccc(F)c3)c3ncnc(N)c23)cc1F` (stereo not shown) [Example 53, 4-(4-amino-1-(1-(5-fluoro-3-(3-fluorophenyl)-4-oxo-4H-chromen-2-yl)ethyl)-1H-pyrazolo[3,4-d]pyrimidin-3-yl)-2-fluoro-N-isopropylbenzamide] the same measures were 254 to 257 °C, 50 to 75% and 0 to 25%.
For `CC(c1oc2cccc(F)c2c(=O)c1-c1cccc(F)c1)n1nc(-c2ccc(CNS(C)(=O)=O)cc2)c2c(N)ncnc21` (stereo not shown) [Example 55, N-(4-(4-amino-1-(1-(5-fluoro-3-(3-fluorophenyl)-4-oxo-4H-chromen-2-yl)ethyl)-1H-pyrazolo[3,4-d]pyrimidin-3-yl)benzyl)methanesulfonamide] the same measures were 252 to 255 °C, 50 to 75% and 25 to 50%.
For `CC(c1oc2cccc(F)c2c(=O)c1-c1cccc(F)c1)n1nc(-c2ccc(S(=O)(=O)NC3CC3)cc2)c2c(N)ncnc21` (stereo not shown) [Example 57, 4-(4-amino-1-(1-(5-fluoro-3-(3-fluorophenyl)-4-oxo-4H-chromen-2-yl)ethyl)-1H-pyrazolo[3,4-d]pyrimidin-3-yl)-N-cyclopropylbenzenesulfonamide] the same measures were 225 to 228 °C, 50 to 75% and 0 to 25%.
Regarding `COc1c(C)cc(-c2nn(C(C)c3oc4cccc(F)c4c(=O)c3-c3cccc(F)c3)c3ncnc(N)c23)cc1C` (stereo not shown) [Example 71, 2-(1-(4-amino-3-(4-methoxy-3,5-dimethylphenyl)-1H-pyrazolo[3,4-d]pyrimidin-1-yl)ethyl)-5-fluoro-3-(3-fluorophenyl)-4H-chromen-4-one], the melting point was in the range of 232 to 235 °C. In addition, at PI3kγ (100 nM (Examples 60-137)), the inhibition at 0.1 µM lay within 25 to 50%. On PI3kδ (100 nM (Examples 60-137)), the inhibition at 0.1 µM was in the range of 0 to 25%.
Regarding `COCc1ccc(-c2nn(C(C)c3oc4cccc(F)c4c(=O)c3-c3cccc(F)c3)c3ncnc(N)c23)cc1` (stereo not shown) [Example 72, 2-(1-(4-amino-3-(4-(methoxymethyl)phenyl)-1H-pyrazolo[3,4-d]pyrimidin-1-yl)ethyl)-5-fluoro-3-(3-fluorophenyl)-4H-chromen-4-one], the melting point fell in the range of 204 to 207 °C. This molecule also yielded an inhibition at 0.1 µM against PI3kγ (100 nM (Examples 60-137)) of 25 to 50%. Besides, the inhibition at 0.1 µM at PI3kδ (100 nM (Examples 60-137)) was 0 to 25%.
The molecule `CC(c1oc2cccc(F)c2c(=O)c1-c1cccc(F)c1)n1nc(-c2ccc3nccn3c2)c2c(N)ncnc21` (stereo not shown) [Example 73, 2-(1-(4-amino-3-(imidazo[1,2-a]pyridin-6-yl)-1H-pyrazolo[3,4-d]pyrimidin-1-yl)ethyl)-5-fluoro-3-(3-fluorophenyl)-4H-chromen-4-one] displayed a melting point of 317 to 320 °C. In addition, at PI3kγ (100 nM (Examples 60-137)), the inhibition at 0.1 µM was 25 to 50%. The molecule further registered an inhibition at 0.1 µM on PI3kδ (100 nM (Examples 60-137)) of 25 to 50%.
On to `Cc1nc(C)c(-c2nn(C(C)c3oc4cccc(F)c4c(=O)c3-c3cccc(F)c3)c3ncnc(N)c23)s1` (stereo not shown) [Example 75, 2-(1-(4-amino-3-(2,4-dimethylthiazol-5-yl)-1H-pyrazolo[3,4-d]pyrimidin-1-yl)ethyl)-5-fluoro-3-(3-fluorophenyl)-4H-chromen-4-one], for which the melting point lay in the range of 252 to 255 °C. In addition, the inhibition at 0.1 µM at PI3kγ (100 nM (Examples 60-137)) lay within 0 to 25%. The molecule further came in with an inhibition at 0.1 µM at PI3kδ (100 nM (Examples 60-137)) of 25 to 50%.
The molecule `CC(C)Oc1ccc(-c2nn(C(C)c3oc4cccc(F)c4c(=O)c3-c3cccc(F)c3)c3ncnc(N(C)C)c23)cc1F` (stereo not shown) [Example 83, 2-(1-(4-(dimethylamino)-3-(3-fluoro-4-isopropoxyphenyl)-1H-pyrazolo[3,4-d]pyrimidin-1-yl)ethyl)-5-fluoro-3-(3-fluorophenyl)-4H-chromen-4-one] had a melting point of 122 to 124 °C. Besides, at PI3kγ, the IC50 is at most 50 nM. This molecule also yielded an inhibition at 0.1 µM against PI3kγ (100 nM (Examples 60-137)) of 75 to 100%. Besides, the IC50 on PI3kδ was at most 50 nM. Besides, the inhibition at 0.1 µM against PI3kδ (100 nM (Examples 60-137)) was 75 to 100%.
Consider `CNc1ncnc2c1c(-c1ccc(OC(C)C)c(F)c1)nn2C(C)c1oc2cccc(F)c2c(=O)c1-c1cccc(F)c1` (stereo not shown) [Example 84, 5-fluoro-2-(1-(3-(3-fluoro-4-isopropoxyphenyl)-4-(methylamino)-1H-pyrazolo[3,4-d]pyrimidin-1-yl)ethyl)-3-(3-fluorophenyl)-4H-chromen-4-one], for which the melting point lay within 193 to 196 °C. This molecule also displayed an IC50 on PI3kγ of over 500 nM. Besides, the “% inhibition (PI3kγ) 100 nM” value on PI3kγ (100 nM (Examples 60-137)) is given as “C (C=>25 to 50%)”. For the same molecule, the IC50 on PI3kδ is at most 50 nM. Moreover, the “% inhibition (PI3kδ) 100 nM” value on PI3kδ (100 nM (Examples 60-137), 0.1 µM) is on record as “B (B=>50 to 75%)”.
`CC(c1oc2cccc(F)c2c(=O)c1-c1cn[nH]c1)n1nc(-c2ccc(OC(F)F)c(F)c2)c2c(N)ncnc21` (stereo not shown) [Example 91, 2-(1-(4-amino-3-(4-(difluoromethoxy)-3-fluorophenyl)-1H-pyrazolo[3,4-d]pyrimidin-1-yl)ethyl)-5-fluoro-3-(1H-pyrazol-4-yl)-4H-chromen-4-one] registered a melting point of 135 to 138 °C. At PI3kγ (100 nM (Examples 60-137)), the inhibition at 0.1 µM fell in the range of 25 to 50%. The same molecule registered an inhibition at 0.1 µM against PI3kδ (100 nM (Examples 60-137)) of 25 to 50%.
